The target in series [1] is T1, Multidrug resistance-associated protein 1 (Homo sapiens, UniProt P33527). Nature of the series: Activity at MRP1 in human HeLa T5 cells assessed as ATP-dependent drug transport at 50 nM measured per mg of protein. The following applies: 0.05 µM. The series is classed as cell-based.
The target in series [2] is T1, Multidrug resistance-associated protein 1. Nature of the series: Activity of MRP1.

T1 sequence (P33527 whole entry): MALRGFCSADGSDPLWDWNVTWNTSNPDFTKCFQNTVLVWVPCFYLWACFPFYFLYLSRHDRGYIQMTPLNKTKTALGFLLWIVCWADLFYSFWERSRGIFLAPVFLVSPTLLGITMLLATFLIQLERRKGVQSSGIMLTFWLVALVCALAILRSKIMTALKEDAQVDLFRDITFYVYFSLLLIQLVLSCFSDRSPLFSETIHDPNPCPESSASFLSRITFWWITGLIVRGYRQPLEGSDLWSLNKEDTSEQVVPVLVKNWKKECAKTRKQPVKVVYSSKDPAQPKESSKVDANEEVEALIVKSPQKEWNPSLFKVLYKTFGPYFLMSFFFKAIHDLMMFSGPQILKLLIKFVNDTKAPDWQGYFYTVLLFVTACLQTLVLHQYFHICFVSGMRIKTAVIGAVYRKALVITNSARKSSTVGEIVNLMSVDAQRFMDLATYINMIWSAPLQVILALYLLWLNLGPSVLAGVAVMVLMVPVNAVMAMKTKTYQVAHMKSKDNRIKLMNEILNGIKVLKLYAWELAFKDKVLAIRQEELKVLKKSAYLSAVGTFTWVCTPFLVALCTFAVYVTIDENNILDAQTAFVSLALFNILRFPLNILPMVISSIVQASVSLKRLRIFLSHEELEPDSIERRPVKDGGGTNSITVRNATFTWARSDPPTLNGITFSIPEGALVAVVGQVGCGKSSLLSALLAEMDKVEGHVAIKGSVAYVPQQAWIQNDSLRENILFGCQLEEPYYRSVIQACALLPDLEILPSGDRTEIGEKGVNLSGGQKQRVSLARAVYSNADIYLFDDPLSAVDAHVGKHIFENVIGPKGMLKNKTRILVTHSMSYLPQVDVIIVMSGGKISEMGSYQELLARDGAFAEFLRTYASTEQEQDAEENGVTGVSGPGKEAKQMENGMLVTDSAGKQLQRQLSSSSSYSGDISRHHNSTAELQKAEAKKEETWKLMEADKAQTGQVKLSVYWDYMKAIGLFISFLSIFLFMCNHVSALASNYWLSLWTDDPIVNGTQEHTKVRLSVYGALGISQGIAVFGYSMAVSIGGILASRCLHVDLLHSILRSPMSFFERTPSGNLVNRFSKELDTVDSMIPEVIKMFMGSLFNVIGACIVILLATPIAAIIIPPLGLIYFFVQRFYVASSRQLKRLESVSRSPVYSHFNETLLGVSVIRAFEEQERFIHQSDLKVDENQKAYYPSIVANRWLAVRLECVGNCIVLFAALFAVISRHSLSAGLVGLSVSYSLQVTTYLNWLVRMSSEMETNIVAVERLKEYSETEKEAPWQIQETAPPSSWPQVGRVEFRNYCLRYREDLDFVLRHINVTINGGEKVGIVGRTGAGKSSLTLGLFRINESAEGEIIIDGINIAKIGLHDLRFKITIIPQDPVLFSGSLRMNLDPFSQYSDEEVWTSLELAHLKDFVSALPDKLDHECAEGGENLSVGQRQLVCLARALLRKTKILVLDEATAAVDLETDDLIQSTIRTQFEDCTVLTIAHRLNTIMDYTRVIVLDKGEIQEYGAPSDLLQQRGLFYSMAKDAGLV

As to `CCCCC/C=C\C\C=C/C=C/C=C/[C@@H](SC[C@H](N)C(=O)NCC(=O)O)[C@@H](O)CCCC(=O)O` [LEUKOTRIENE D4], in series [1], the Activity is 15 pmol/min.
In general, Km refers to the substrate concentration at which the rate is half of its maximum. For `Cc1ccc(N(CC(=O)O)CC(=O)O)c(OCCOc2cc(-c3c4cc(Cl)c(=O)cc-4oc4cc(O)c(Cl)cc34)ccc2N(CC(=O)O)CC(=O)O)c1`, the Km in series [2] was 12 µM.
As to `CCCCC/C=C\C\C=C/C=C/C=C/[C@@H](SC[C@H](N)C(=O)O)[C@@H](O)CCCC(=O)O` [LEUKOTRIEN E4], the Activity in series [1] came to 8 pmol/min.
